Laboratory results published in patent publication EP0182608B1, “Polycyclic compounds, their preparation and formulations containing them” (priority 1984, dated 1986).

Tested on: P388/0 tumor cells
Assay: Lymphocytic Leukemia P388/0 Test
Format: in vivo, CD2-F₁ mice
Conditions: for LD₂₀: CD2-F₁ mice, intraperitoneally on days 1, 5 and 9; for 30 DAY Survivors: at the optimal dose, survivors out of 6 animals per dose level group; for T/C x 100% (Excluding 30 Day Survivors): ratio of median survival time treated/control at the optimal dose, i.p. days 1, 5, 9, criterion for activity T/C x 100 ≧120%
Text: Methods for evaluating the antitumor activity of these compounds are essentially those used in the Tumor Panel by the Development Therapeutics Program, Division of Cancer Treatment, National Cancer Institute, A. Goldin, et al., Methods in Cancer Research, Vol. XVI, p. 165, Academic Press (1979). Some modifications, in dose level and schedule have been made to increase the testing efficiency.
CD2-F₁ mice, of the same sex weighing within 20±3g, are used for this test. Control and test animals are injected intraperitoneally with a suspension of 10⁶ viable P388/0 tumor cells on day 0. In each test several dose levels which bracket the LD₂₀ for the compound are evaluated; each dose level group contains 6 animals. The test compounds are prepared either in physiologic saline containing 0.05% Tween 80 or distilled water containing 5% dextrose and are administered intraperitoneally on days, 1, 5, and 9 relative to tumor implant. Doses are on a mg/kg basis according to individual animals' body weights. the day of death for each animal is recorded, the median identified for each group and the ratios of median survival time for treated (T)/control (C) groups are calculated. The criterion for activity is T/C x 100 ≧120%.

Molecule	LD₂₀ [mg/kg]	30 DAY Survivors	T/C x 100% (Excluding 30 Day Survivors)
2-Methyl-2-[[(7-methyl-7-H-benzo[c]carbazol-10-yl) methyl]amino-1,3-propanediol hydrochloride 3/10 hydrate [Example 4C]	55	6/6	no deaths
CC(CO)(CO)NCc1cc2c3ccccc3sc2c2ccccc12 [Example 1, 2-((Benzo[b]naphtho [2,1-d]thiophen-5-ylmethyl)amino)-2-methyl-1,3-propanediol methanesulfonate]	35	1/6	+210%
CC(CO)(CO)NCc1c2ccccc2cc2c1oc1ccccc12 [Example 2B, 2-((Benzo[b]naphtho[2,3-d]furan-6-ylmethyl)amino]2-methyl-1,3-propanediol methanesulfonate]	125	1/6	+204%
CC(CO)(CO)NCc1cc2oc3ccccc3c2c2ccccc12 [Example 3B, 2-((Benzo[b]naphtho[1,2-d]furan-5-ylmethyl)amino)-2-methyl-1,3-propanediol methanesulfonate]	10	2/6	+230%
CC(CO)(CO)NCc1cc2c3ccccc3oc2c2ccccc12 [Example 5B]	100	4/6	+255%
CC(CO)(CO)NCc1cccc2cc3c(cc12)oc1ccccc13 [Example 6B, 2-[(Benzo[b]naphthol[2,3-d]furan-7-ylmethyl)amino]-2-methyl-1,3-propanediol methanesulphonate 1/4 hydrate]	35	0/6	+210%
